Measured values as given in US8883135B2, “Crystalline form of a pyridyl-piperazinyl hepatitis C virus inhibitor” (Theravance Biopharma R&D IP, LLC, priority 2012, dated 2014).

Key:
[1] = tested on: HCV genotype 1a replicon cell line (Huh7.5 cell background); test: HCV Genotype 1a Replicon Assay; type: cell-based; details: Hepatitis C virus, NS3-specific protease activity in lysates, 48 or 72 hours incubation
Experimental: The HCV genotype 1a replicon cell line was obtained from Apath LLC (APC89; Huh7.5 cell background). This subgenomic replicon contains the N-terminus of the HCV core protein fused to the neomycin-resistance selectable marker. The EMCV IRES lies downstream and drives expression of the non-structural proteins NS3-NS5B. Compound potencies were determined using the NS3-specific protease activity in lysates as a measurement of compound inhibition of replicon levels.
Cells were grown at 37° C. in a 5% CO2 humidified incubator in DMEM (Invitrogen) with 10% FBS (HyClone), 1×NEAA (Invitrogen), 1× Pen-Strep (Invitrogen), and 850 μg/mL G418 (Invitrogen). On day 1 of the assay, cells were plated at 15,000 cells/well in black 96-well tissue culture plates (Costar) in 200 μL media lacking G418. […]
To determine the NS3-specific protease activity in lysates, the cells were lysed at room temperature in 50 μL/well of 50 mM Hepes pH 7.5, 150 mM NaCl, 15% Glycerol, 0.15% Triton X-100, 10 mM DTT for 20 minutes with shaking. […] Protease activity was determined by measuring fluorescence (Excitation: 340 nm; Emission: 509 nm).
To analyze the data, the fluorescence was plotted vs. the compound concentration, and EC50 values were determined from a 4-parameter robust fit model using GraphPad Prism software.

[2] = tested on: HCV replicon resistant mutants: genotype 1b L31V and Y93H; genotype 1a Q30R and L31V; test: Replicon Assays Against Resistant Mutants (stably transfected Huh7 cells); type: cell-based; details: Hepatitis C virus, Huh-7, read-out: pEC50 (converted)
Experimental: To create replicon cells with resistant mutations of interest, the mutation was first introduced into the parental plasmid by site-directed mutagenesis. Mutations in genotype 1b included L31V and Y93H. Mutations in genotype 1a included Q30R and L31V. The replicon plasmid was then linearized and in vitro transcribed to RNA. The RNA was used to stably transfect Huh7 cells by electroporation, and new cell lines were selected with 500 μg/mL G418. Potencies of test compounds against these mutant cell lines were determined as previously described above for the HCV Genotype 1b and 1a replicon assays.

[3] = tested on: HCV replicon mutants genotype 1a Y93H, M28T, and Q30E; test: Replicon assays against resistant mutants (transient transfection, Huh-LUNET cells); type: cell-based; details: Hepatitis C virus, read-out: pEC50 (converted)
Experimental: Potencies of test compounds against additional mutations of interest were determined using transient transfection assays. These mutants included genotype 1a Y93H, M28T, and Q30E. The mutation was first introduced into the parental plasmid by site-directed mutagenesis. The replicon plasmid was then linearized and in vitro transcribed to RNA. The RNA was used to transiently transfect Huh-LUNET cells (obtained from ReBLikon GmbH, Schriesheim, Germany) by electroporation, and the potencies of test compounds against the mutants were determined as previously described.

[4] = tested on: HCV genotype 1b replicon cell line (Huh7 cell background); test: HCV Genotype 1b Replicon Assay; type: cell-based; details: Hepatitis C virus, Huh-7, luciferase activity readout, 48 hours incubation
Excerpt: The HCV genotype 1b replicon cell line was obtained from Apath LLC (Brooklyn, N.Y.) (APC144; Huh7 cell background). This subgenomic replicon contains the N-terminus of the HCV core protein fused to the neomycin-resistance selectable marker. The EMCV IRES lies downstream and drives expression of humanized Renilla luciferase fused to the non-structural proteins NS3-NS5B. This cell line was used to determine compound potency using the luciferase activity readout as a measurement of compound inhibition of replicon levels.
Cells were grown at 37° C. in a 5% CO2 humidified incubator in DMEM (Invitrogen) with 10% FBS (HyClone), 1×NEAA (Invitrogen), 1× Pen-Strep (Invitrogen), and 500 μg/mL G418 (Invitrogen). On day 1 of the assay, cells were plated at 10,000 cells/well in white 96-well tissue culture plates (Costar) in 200 μL media lacking G418. […] At the end of the incubation period, media and compound were removed from the plates and the luciferase activity was determined using Promega Renilla-Glo reagents.
To analyze the data, the luciferase activity was plotted vs. the compound concentration, and EC50 values were determined from a 4-parameter robust fit model with the GraphPad Prism software package (GraphPad Software, Inc., San Diego, Calif.). Results are expressed as the negative decadic logarithm of the EC50 value, pEC50. […]

[5] = Dynamic Moisture Sorption Assessment; type: physicochemical; details: for deliquescence: exposed to up to about 90% relative humidity at room temperature; for change in solid form (powder diffraction pattern) after two sorption/desorption cycles: two DMS cycles, PXRD compared with the starting material
Experimental: Dynamic moisture sorption (DMS) measurements were performed for each crystalline form using a VTI atmospheric microbalance, SGA-100 system (VTI Corp., Hialeah, Fla. 33016). A weighed sample was used and the humidity was lowest possible value (close to 0% RH) at the start of the analysis. […] The DMS run was performed isothermally at 25° C.

[6] = humidity range of 2% to 90% relative humidity at room temperature

| Compound | EC50 [1] [nM] | EC50 [2] [nM] | EC50 [3] [nM] | EC50 [4] [nM] | deliquescence [5] | weight gain (dynamic moisture sorption) [5, 6] | weight gain (dynamic moisture sorption) ([5]; humidity range of 2% to 90% relative humidity at room temperature, listed as Crystalline compound 1) [%] | change in solid form (powder diffraction pattern) after two sorption/desorption cycles [5] | weight gain (dynamic moisture sorption) ([5]; at 90% relative humidity during the initial adsorption segment) |
| --- | --- | --- | --- | --- | --- | --- | --- | --- | --- |
| CNC(=O)N1C[C@@H](C)N(c2ccc(C(=O)Nc3ccc(-c4ccc(-c5c[nH]c([C@@H]6CCCN6C(=O)[C@@H](NC(=O)OC)C(C)C)n5)cc4)c(OC(F)(F)F)c3)cn2)C[C@@H]1C [Compound 1, ((S)-1-{(S)-2-[4-(4′-{[6-((2R,5S)-2,5-dimethyl-4-methylcarbamoyl-piperazin-1-yl)-pyridine-3-carbonyl]-amino}-2′-trifluoromethoxy-biphenyl-4-yl)-1H-imidazol-2-yl]-pyrrolidine-1-carbonyl}-2-methyl-propyl)-carbamic acid methyl ester] | ≤ 0.1 | ≤ 10 | ≤ 10 | ≤ 0.01 | – | – | – | – | – |
| CNC(=O)N1C[C@@H](C)N(c2ccc(C(=O)Nc3ccc(-c4ccc(-c5c[nH]c([C@@H]6CCCN6C(=O)[C@@H](NC(=O)OC)C(C)C)n5)cc4)c(OC(F)(F)F)c3)cn2)C[C@@H]1C [crystalline compound 1, Crystalline ((S)-1-{(S)-2-[4-(4′-{[6-((2R,5S)-2,5-Dimethyl-4-methylcarbamoyl-piperazin-1-yl)-pyridine-3-carbonyl]-amino}-2′-trifluoromethoxy-biphenyl-4-yl)-1H-imidazol-2-yl]-pyrrolidine-1-carbonyl}-2-methyl-propyl)-carbamic acid methyl ester] | – | – | – | – | neither crystalline compound 1 nor the anhydrous and hydrate forms of the crystalline dihydrochloride salt of compound 1 is deliquescent | about 3% | ≤ 3 | no change in form | – |
| CNC(=O)N1C[C@@H](C)N(c2ccc(C(=O)Nc3ccc(-c4ccc(-c5c[nH]c([C@@H]6CCCN6C(=O)[C@@H](NC(=O)OC)C(C)C)n5)cc4)c(OC(F)(F)F)c3)cn2)C[C@@H]1C.Cl.Cl.O [monohydrate form, Crystalline ((S)-1-{(S)-2-[4-(4′-{[6-((2R,5S)-2,5-Dimethyl-4-methylcarbamoyl-piperazin-1-yl)-pyridine-3-carbonyl]-amino}-2′-trifluoromethoxy-biphenyl-4-yl)-1H-imidazol-2-yl]-pyrrolidine-1-carbonyl}-2-methyl-propyl)-carbamic acid methyl ester dihydrochloride Monohydrate Form] | – | – | – | – | neither crystalline compound 1 nor the anhydrous and hydrate forms of the crystalline dihydrochloride salt of compound 1 is deliquescent | – | – | no change in form | about 2% |
| Crystalline ((S)-1-{(S)-2-[4-(4′-{[6-((2R,5S)-2,5-Dimethyl-4-methylcarbamoyl-piperazin-1-yl)-pyridine-3-carbonyl]-amino}-2′-trifluoromethoxy-biphenyl-4-yl)-1H-imidazol-2-yl]-pyrrolidine-1-carbonyl}-2-methyl-propyl)-carbamic acid methyl ester dihydrochloride Anhydrous Form [anhydrous dihydrochloride salt] | – | – | – | – | neither crystalline compound 1 nor the anhydrous and hydrate forms of the crystalline dihydrochloride salt of compound 1 is deliquescent | about 0.8% | – | no change in form | – |
